In US20120122816A1, “COMPOSITIONS AND METHODS FOR ORGAN PRESERVATION” (Resolvyx Pharmaceuticals, Inc., priority 2009, published 2012):
Where two headings read alike, the source gives them in different places.

Experiments:
[1] = tested on: ARPE-19 cells; experiment: Oxidative stress-induced apoptosis (TNF-α/H2O2), Hoechst positive cells; format: cell-based; conditions: for oxidative stress-induced apoptosis, concentration dependence: 10, 30 and 50 nM; for inhibition at 0.03 µM / inhibition at 0.05 µM: Homo sapiens, ARPE-19; for inhibition at 0.05 µM: 50 nM compound
Experimental: (§1) The effects of compounds of the invention on apoptotic cell death induced by oxidative stress and on Il-1β induced pro-inflammatory COX-2 gene expression in ARPE-19 cells was measured using the following protocol.
(§2) 72 h grown cells in 6 well plates were serum starved for 8 h, and then oxidative stress was induced with TNF-α/H2O2 (600 μM) for 16 h. Cells were incubated with different concentrations of compound X, compound Z, and compound 48b. Apoptotic cell death was scored by Hoechst positive cells. COX-2 (−830) promoter construct, linked to luciferase reporter gene, was used to transfect ARPE-19 cells by Fugene-6. A β-galactosidase plasmid was co-transfected as transfection control. Transfected cells were serum starved, induced by Il-1β, and incubated with different concentrations of compound X, compound Z, and compound 48b. Luciferase assays were performed using luciferin as substrate.

[2] = tested on: COX-2 gene expression; experiment: Il-1β induced COX-2 promoter luciferase reporter assay in ARPE-19 cells; format: cell-based; conditions: FIG. 3
Experimental: as §1, §2

[3] = tested on: Rats; experiment: Protection against ischemia reperfusion injury (coronary artery occlusion and reperfusion); format: in vivo, rat
Experimental: The ability of compound X, administered before reperfusion, to limit myocardial infarct size (IS) was measured using the following protocol.
Rats were anesthetized with ketamine and xylazine and underwent 30 min of coronary artery occlusion and 4 h of reperfusion. Just before reperfusion rats received compound X i.v. (0.03 mg/kg, 0.1 mg/kg or 0.3 mg/kg) or vehicle alone (control). Area at risk (AR) was assessed by blue dye and IS by triphenyltetrazoliumchloride (TTC) staining.

[4] = tested on: H9C2 cells; experiment: Protection against hypoxia-reoxygenation injury (trypan blue uptake, MTT); format: cell-based, rat
Experimental: The ability of compound X to protect cardiomyocytes against hypoxia-reoxygenation injury was measured using the following protocol.
H9C2 cells derived from embryonic rat heart tissue were incubated with compound X (0, 1, 10, 100, or 1000 nM). Cells were subjected to 16 h of hypoxia and 2 h of reoxygenation. Cell death was assessed by trypan blue (TB) uptake and cell viability by MTT (3-(4,5-dimethylthiazol-2-yl)-2,5-diphenyl tetrazolium bromide) assay.

[5] = tested on: H9C2 cells; experiment: as above; format: cell-based, rat; remark: listed apart in the source
[6] = 30 nM compound, TNF-α/H2O2 (600 μM) 16 h, FIG. 1, read-out: inhibition of oxidative stress-induced apoptosis
[7] = TNF-α/H2O2 (600 μM) 16 h, FIG. 1
[8] = i.v. 0.03-0.3 mg/kg, anesthetized rats

For `CC/C=C\C[C@H](O)\C=C/C=C/C=C/[C@H](O)C/C=C\C/C=C\CCC(=O)O` [Compound 48b], the “oxidative stress-induced apoptosis, concentration dependence” value [1] was “inhibit oxidative stress-induced apoptosis in a concentration dependent manner”, the inhibition at 0.03 µM [1, 6] was about 45% and the inhibition at 0.05 µM [1, 7] was about 80%. For the same compound, the “expression of pro-inflammatory COX-2” value [2] was “stronger inhibition”.
`CC[C@@H](O)/C=C/C=C\C[C@@H](O)/C=C/C=C/C=C\[C@@H](O)CCCC(=O)O` [Compound X] was tested, and the “myocardial infarct size (IS)” value ([3]; i.v. 0.03, 0.1 or 0.3 mg/kg just before reperfusion, 30 min occlusion, 4 h reperfusion, FIG. 4) was “dose-dependently limited IS”, the heart rate [3, 8] was “did not affect” and the mean blood pressure [3, 8] was “did not affect”. The “TB (%) (trypan blue positive cells)” value ([4]; 1.0 nM, 16 h hypoxia, 2 h reoxygenation) was 35.5 ± 0.4%, the “TB (%) (trypan blue positive cells)” value ([4]; 10 nM, 16 h hypoxia, 2 h reoxygenation) was 30.3 ± 0.4% and the “TB (%) (trypan blue positive cells)” value ([4]; 100 nM, 16 h hypoxia, 2 h reoxygenation) was 23.8 ± 0.9%. The “TB (%) (trypan blue positive cells)” value ([4]; 1000 nM, 16 h hypoxia, 2 h reoxygenation) was 24.1 ± 0.3%, the viability at 0.001 µM ([4]; Rattus norvegicus, H9c2, 1.0 nM, 16 h hypoxia, 2 h reoxygenation, read-out: MTT (%) (cell viability)) was 50.1 ± 0.8% and the viability at 0.01 µM ([4]; Rattus norvegicus, H9c2, 10 nM, 16 h hypoxia, 2 h reoxygenation, read-out: MTT (%) (cell viability)) was 62.6 ± 1.2%. The viability at 0.1 µM ([4]; Rattus norvegicus, H9c2, 100 nM, 16 h hypoxia, 2 h reoxygenation, read-out: MTT (%) (cell viability)) was 74.6 ± 0.9%, the viability at 1 µM ([4]; Rattus norvegicus, H9c2, 1000 nM, 16 h hypoxia, 2 h reoxygenation, read-out: MTT (%) (cell viability)) was 70.5 ± 0.5% and the “concentration of maximal effect” value ([4]; tested 1-1000 nM) was 100 nM. The apoptosis [5] was “decreased apoptosis”, the “oxidative stress-induced apoptosis, concentration dependence” value [1] was “inhibit oxidative stress-induced apoptosis in a concentration dependent manner” and the inhibition at 0.03 µM [1, 6] was about 20%. The inhibition at 0.05 µM [1, 7] was about 30%, the inhibition at 0.03 µM ([1]; each compound at 30 nM, plus compound 48b, FIG. 2, read-out: combined inhibition of apoptosis upon addition of compound 48b) was about 60% and the “expression of pro-inflammatory COX-2” value [2] was “inhibited”.
